The assay concerns the target fully phosphorylated, active Mouse ERK2 protein (Mus musculus (Mouse), UniProt P63085). The experiment in a line: Active ERK2 (aERK) IMAP assay. It is filed as biochemical. The note with it: IMAP fluorescence polarization; 30 μM ATP; 30 minute pre-incubation. For orientation: In fluorescence polarisation assays a small probe gives low polarisation when free and higher when bound to something large.

This passage reports IC50 results from patent US9351965B2, “Indazole derivatives useful as ERK inhibitors” (Merck Sharp & Dohme Corp., priority 2010, dated 2016).

The structures appear in SMILES notation.

Chain of fully phosphorylated, active Mouse ERK2 protein (P63085 whole entry): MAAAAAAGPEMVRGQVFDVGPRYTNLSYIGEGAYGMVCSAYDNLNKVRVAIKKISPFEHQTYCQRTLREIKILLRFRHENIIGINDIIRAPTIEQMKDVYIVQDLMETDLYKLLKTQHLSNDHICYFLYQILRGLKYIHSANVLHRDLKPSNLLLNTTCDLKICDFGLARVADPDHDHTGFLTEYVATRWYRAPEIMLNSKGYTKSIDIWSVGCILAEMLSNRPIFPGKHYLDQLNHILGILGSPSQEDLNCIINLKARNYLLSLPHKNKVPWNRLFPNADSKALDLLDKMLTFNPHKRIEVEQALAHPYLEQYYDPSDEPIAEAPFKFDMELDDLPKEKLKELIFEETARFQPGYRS

`Cn1cc2cc(-c3n[nH]c4ccc(C(=O)NC5CCCC(Cn6cnc7ccccc76)C5)cc34)ccc2n1` (stereo not drawn) [compound 109, N-[3-(1H-benzimidazol-1-ylmethyl)cyclohexyl]-3-(2-methyl-2H-indazol-5-yl)-1H-indazole-5-carboxamide]: the midpoint of inhibition, the IC50, lay at 21.1 nM.
For the molecule `O=C(NC1CCCC(Cn2cccn2)C1)c1ccc2[nH]nc(-c3ccc4nccn4c3)c2c1` (stereo not drawn) [compound 110, 3-imidazo[1,2-a]pyridin-6-yl-N-[3-(1H-pyrazol-1-ylmethyl)cyclohexyl]-1H-indazole-5-carboxamide], 74.6 nM corresponded to half-maximal inhibition (IC50).
With `O=C(NC1CCCC(Cn2cncn2)C1)c1ccc2[nH]nc(-c3ccc4nccn4c3)c2c1` (stereo not drawn) [compound 111, 3-imidazo[1,2-a]pyridin-6-yl-N-[3-(1H-1,2,4-triazol-1-ylmethyl)cyclohexyl]-1H-indazole-5-carboxamide] the figure was 77.2 nM; with `Cc1nc2ccc(-c3n[nH]c4ccc(C(=O)NC5CCCC(Cn6cc(C#N)c7ccccc76)C5)cc34)cc2s1` (stereo not drawn) [compound 112, N-[3-[(3-cyano-1H-indol-1-yl)methyl]cyclohexyl]-3-(2-methyl-6-benzothiazolyl)-1H-indazole-5-carboxamide], 1000 nM.
Take `Cc1cc(-c2n[nH]c3ccc(C(=O)NC4CCCC(Cn5cc6cccnc6n5)C4)cc23)ccn1` (stereo not drawn) [compound 113, 3-(2-methyl-4-pyridinyl)-N-[3-(2H-pyrazolo[3,4-b]pyridin-2-ylmethyl)cyclohexyl]-1H-indazole-5-carboxamide]: it took 164 nM to reach half-maximal inhibition (IC50).
Then `Cc1cc(-c2n[nH]c3ccc(C(=O)NC4CCCC(Cn5ncc6cccnc65)C4)cc23)ccn1` (stereo not drawn) [compound 114, 3-(2-methyl-4-pyridinyl)-N-[3-(1H-pyrazolo[3,4-b]pyridin-1-ylmethyl)cyclohexyl]-1H-indazole-5-carboxamide], with 15.4 nM.
Take `Cc1cc(-c2n[nH]c3ccc(C(=O)NC4CCCC(Cn5ncc6ccncc65)C4)cc23)ccn1` (stereo not drawn) [compound 115, 3-(2-methyl-4-pyridinyl)-N-[3-(1H-pyrazolo[3,4-c]pyridin-1-ylmethyl)cyclohexyl]-1H-indazole-5-carboxamide]: the concentration for half-maximal inhibition (IC50) (as a rule, the concentration that inhibits the measured activity by half) turned out to be 33.8 nM. This IC50 lies about 2.2-fold higher than the previous one.
With `Cc1cc(-c2n[nH]c3ccc(C(=O)NC4CCCC(Cn5c(C)nc6cnccc65)C4)cc23)ccn1` (stereo not drawn) [compound 116, N-[3-[(2-methyl-1H-imidazo[4,5-c]pyridiN-1-yl)methyl]cyclohexyl]-3-(2-methyl-4-pyridinyl)-1H-indazole-5-carboxamide] the figure was 1000 nM; with `Cc1cc(-c2n[nH]c3ccc(C(=O)NC4CCCC(Cn5cnc6ncccc65)C4)cc23)ccn1` (stereo not drawn) [compound 117, N-[3-(1H-imidazo[4,5-b]pyridin-1-ylmethyl)cyclohexyl]-3-(2-methyl-4-pyridinyl)-1H-indazole-5-carboxamide], 86.5 nM.
Then `Cc1cc(-c2n[nH]c3ccc(C(=O)NC4CCCC(Cn5cnc6cccnc65)C4)cc23)ccn1` (stereo not drawn) [compound 118, N-[3-(3H-imidazo[4,5-b]pyridin-3-ylmethyl)cyclohexyl]-3-(2-methyl-4-pyridinyl)-1H-indazole-5-carboxamide], with 60.8 nM; and `Cc1cc(-c2n[nH]c3ccc(C(=O)NC4CCCC(Cn5ncc6cnccc65)C4)cc23)ccn1` (stereo not drawn) [compound 119, 3-(2-methyl-4-pyridinyl)-N-[3-(1H-pyrazolo[4,3-c]pyridin-1-ylmethyl)cyclohexyl]-1H-indazole-5-carboxamide], with 530 nM.
With `Cc1cc(-c2n[nH]c3ccc(C(=O)NC4CCCC(CN5C(=O)Cc6ccccc65)C4)cc23)ccn1` (stereo not drawn) [compound 120, N-[3-[(2,3-dihydro-2-oxo-1H-indol-1-yl)methyl]cyclohexyl]-3-(2-methyl-4-pyridinyl)-1H-indazole-5-carboxamide] the figure was 17.4 nM; with `Cc1cc(-c2n[nH]c3ccc(C(=O)NC4CCCC(Cn5c(=O)ccc6ccccc65)C4)cc23)ccn1` (stereo not drawn) [compound 121, 3-(2-methyl-4-pyridinyl)-N-[3-[(2-oxo-1(2h)-quinolinyl)methyl]cyclohexyl]-1H-indazole-5-carboxamide], 37.2 nM; with `Cc1cc(-c2n[nH]c3ccc(C(=O)NC4CCCC(Cn5cc6ccccc6n5)C4)cc23)ccn1` (stereo not drawn) [compound 122, N-[3-(2H-indazol-2-ylmethyl)cyclohexyl]-3-(2-methyl-4-pyridinyl)-1H-indazole-5-carboxamide], 14.3 nM.
`Cc1cc(-c2n[nH]c3ccc(C(=O)NC4CCCC(Cn5ncc6ccccc65)C4)cc23)ccn1` (stereo not drawn) [compound 123, N-[3-(1H-indazol-1-ylmethyl)cyclohexyl]-3-(2-methyl-4-pyridinyl)-1H-indazole-5-carboxamide] registered a half-maximal inhibitory concentration (IC50) of 10.7 nM.
Regarding `Cc1nc2ccc(-c3n[nH]c4ccc(C(=O)NC5CCCC(Cn6c(C)nc7ccccc76)C5)cc34)cc2s1` (stereo not drawn) [compound 127, N-[3-[(2-methyl-1H-benzimidazol-1-yl)methyl]cyclohexyl]-3-(2-methyl-6-benzothiazolyl)-1H-indazole-5-carboxamide], the IC50 was found to be 1000 nM.
Then `Cc1cc(-c2n[nH]c3ccc(C(=O)NC4CCCC(CO)(Cc5c(F)cccc5F)C4)cc23)ccn1` (stereo not drawn) [compound 129, N-[3-[(2,6-difluorophenyl)methyl]-3-(hydroxymethyl)cyclohexyl]-3-(2-methyl-4-pyridinyl)-1H-indazole-5-carboxamide], with 636 nM; and `Cc1cc(-c2n[nH]c3ccc(C(=O)NC4CCCC(CO)(Cc5ccccc5)C4)cc23)ccn1` (stereo not drawn) [compound 132, N-[3-(hydroxymethyl)-3-(phenylmethyl)cyclohexyl]-3-(2-methyl-4-pyridinyl)-1H-indazole-5-carboxamide], with 223 nM.
Then `Cc1cc(-c2n[nH]c3ccc(C(=O)NC4CCCC(CO)(Cc5ccccc5F)C4)cc23)ccn1` (stereo not drawn) [compound 133, N-[3-[(2-fluorophenyl)methyl]-3-(hydroxymethyl)cyclohexyl]-3-(2-methyl-4-pyridinyl)-1H-indazole-5-carboxamide], with 109 nM; and `Cc1cc(-c2n[nH]c3ccc(C(=O)NC4CCCC(CO)(Cc5ccc(F)cc5F)C4)cc23)ccn1` (stereo not drawn) [compound 134, N-[3-[(2,4-difluorophenyl)methyl]-3-(hydroxymethyl)cyclohexyl]-3-(2-methyl-4-pyridinyl)-1H-indazole-5-carboxamide], with 436 nM.
With `Cc1cc(-c2n[nH]c3ccc(C(=O)NC4CCCC(CO)(Cc5ccc(F)cc5)C4)cc23)ccn1` (stereo not drawn) [compound 135, N-[3-[(4-fluorophenyl)methyl]-3-(hydroxymethyl)cyclohexyl]-3-(2-methyl-4-pyridinyl)-1H-indazole-5-carboxamide] the figure was 357 nM; with `Cc1cc(-c2n[nH]c3ccc(C(=O)NC4CCCC(Cc5ccc(F)cc5)(C(=O)O)C4)cc23)ccn1` (stereo not drawn) [compound 136, 1-[(4-fluorophenyl)methyl]-3-[[[3-(2-methyl-4-pyridinyl)-1H-indazol-5-yl]carbonyl]amino]cyclo-hexanecarboxylic acid], 302 nM.
In turn, `Cc1cc(-c2n[nH]c3ccc(C(=O)NC4CCCC(CO)(Cc5c(F)cccc5F)C4)cc23)ccn1` (stereo not drawn) [compound 137, N-[3-[(2,6-difluorophenyl)methyl]-3-(hydroxymethyl)cyclohexyl]-3-(2-methyl-4-pyridinyl)-1H-indazole-5-carboxamide] yielded an IC50 of 445 nM.
`Cc1cc(-c2n[nH]c3ccc(C(=O)NC4CCC(CO)(Cc5ccccc5F)C4)cc23)ccn1` (stereo not drawn) [compound 138, N-[3-[(2-fluorophenyl)methyl]-3-(hydroxymethyl)cyclopentyl]-3-(2-methyl-4-pyridinyl)-1H-indazole-5-carboxamide]: 19.2 nM corresponded to half-maximal inhibition (IC50).
Take `Cc1cc(-c2n[nH]c3ccc(C(=O)NC4CCC(CO)(Cc5ccccc5F)C4)cc23)ccn1` (stereo not drawn) [compound 139, N-[3-[(2-fluorophenyl)methyl]-3-(hydroxymethyl)cyclopentyl]-3-(2-methyl-4-pyridinyl)-1H-indazole-5-carboxamide]: the IC50 was determined as 64.4 nM.
Consider `Cc1cc(-c2n[nH]c3ccc(C(=O)NN4CCCC(Oc5ccccc5Cl)C4)cc23)ccn1` (stereo not drawn) [compound 140, N-[3-(2-chlorophenoxy)-1-piperidinyl]-3-(2-methyl-4-pyridinyl)-1H-indazole-5-carboxamide], for which the IC50 was found to be 31.3 nM.
On to `Cc1cc(-c2n[nH]c3ccc(C(=O)NN4CCCC(Oc5ccccc5Cl)C4)cc23)ccn1` (stereo not drawn) [compound 141, N-[3-(2-chlorophenoxy)-1-piperidinyl]-3-(2-methyl-4-pyridinyl)-1H-indazole-5-carboxamide], for which inhibition was half-maximal at 84.4 nM (IC50).
Then `Cc1cc(-c2n[nH]c3ccc(C(=O)NN4CCCC(Oc5ccccc5F)C4)cc23)ccn1` (stereo not drawn) [compound 142, N-[3-(2-fluorophenoxy)-1-piperidinyl]-3-(2-methyl-4-pyridinyl)-1H-indazole-5-carboxamide], with 153 nM.
With `Cc1cc(-c2n[nH]c3ccc(C(=O)NN4CCCC(Oc5ccccc5F)C4)cc23)ccn1` (stereo not drawn) [compound 143, N-[3-(2-fluorophenoxy)-1-piperidinyl]-3-(2-methyl-4-pyridinyl)-1H-indazole-5-carboxamide] the figure was 26.8 nM.
In turn, `CC(C)Oc1ccc(-c2n[nH]c3ccc(C(=O)NN4CCCC4CCc4ccccc4)cc23)cn1` (stereo not drawn) [compound 144, 3-[6-(1-methylethoxy)-3-pyridinyl]-N-[2-(2-phenylethyl)-1-pyrrolidinyl]-1H-indazole-5-carboxamide] gave an IC50 of 497 nM.
With `Cc1cc(-c2n[nH]c3ccc(C(=O)NN4CCCC4CCc4ccccc4)cc23)ccn1` (stereo not drawn) [compound 145, 3-(2-methyl-4-pyridinyl)-N-[2-(2-phenylethyl)-1-pynolidinyl]-1H-indazole-5-carboxamide] the figure was 28.7 nM; with `CC(C)Oc1cc(-c2n[nH]c3ccc(C(=O)NN4CCCC4CCc4ccccc4)cc23)ccn1` (stereo not drawn) [compound 146, 3-[2-(1-methylethoxy)-4-pyridinyl]-N-[2-(2-phenylethyl)-1-pyrrolidinyl]-1H-indazole-5-carboxamide], 1000 nM.
For the molecule `Cc1cc(-c2n[nH]c3ccc(C(=O)NN4CCCC(CO)(Oc5cc(F)ccc5F)C4)cc23)ccn1` (stereo not drawn) [compound 147, N-[3-(2,5-difluorophenoxy)-3-(hydroxymethyl)-1-piperidinyl]-3-(2-methyl-4-pyridinyl)-1H-indazole-5-carboxamide], half-maximal inhibition (IC50) was put at 388 nM.
